In PMC5766581, “NF-κB inducing kinase is a therapeutic target for systemic lupus erythematosus” (Nature Communications, 2018):
Where “and” joins values, the source holds several entries; their conditions need not be identical. Equal values may be shown once.

Columns and labels:
Test in all cases: SelectScreen kinase panel
Type in all cases: biochemical
MLK1 = biological target: T1, MLK1 (Homo sapiens, UniProt P80192)
T1 construct: purchased Invitrogen / ThermoFisher SelectScreen
Method in brief: (§1)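 Mean percentage inhibition was determined through Invitrogen's SelectScreen broad profiling service, which used peptide-phosphorylation, ADP-quantitation, or ATP-site binding assays (Z′-LYTE, Adapta, LanthaScreen, respectively).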

Yes = biological target: T2, Yes (Homo sapiens, UniProt P07947)
T2 construct: purchased Invitrogen / ThermoFisher SelectScreen
Method in brief: as §1

PKD_delta = biological target: T3, PKD_delta (Homo sapiens, UniProt Q05655)
T3 construct: purchased Invitrogen / ThermoFisher SelectScreen
Method in brief: as §1

DAPK1 = biological target: T4, DAPK1 (Homo sapiens, UniProt P53355)
T4 construct: purchased Invitrogen / ThermoFisher SelectScreen
Method in brief: as §1

CK1_gamma2 = biological target: T5, CK1_gamma2 (Homo sapiens, UniProt P78368)
T5 construct: purchased Invitrogen / ThermoFisher SelectScreen
T5 sequence (P78368 whole entry): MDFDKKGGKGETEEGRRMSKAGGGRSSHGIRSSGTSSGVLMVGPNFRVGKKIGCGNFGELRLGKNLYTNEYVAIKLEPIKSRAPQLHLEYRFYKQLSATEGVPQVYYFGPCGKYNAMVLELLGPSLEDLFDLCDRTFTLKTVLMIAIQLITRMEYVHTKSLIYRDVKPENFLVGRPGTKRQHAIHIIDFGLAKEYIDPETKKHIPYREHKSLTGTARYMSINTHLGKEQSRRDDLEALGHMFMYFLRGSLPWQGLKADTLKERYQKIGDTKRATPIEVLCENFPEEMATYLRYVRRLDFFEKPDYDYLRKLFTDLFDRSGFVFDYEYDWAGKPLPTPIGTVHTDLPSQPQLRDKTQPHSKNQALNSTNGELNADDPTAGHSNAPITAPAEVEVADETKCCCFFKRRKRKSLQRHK
Method in brief: as §1

HIPK2 = biological target: T6, HIPK2 (Homo sapiens, UniProt Q9H2X6)
T6 construct: purchased Invitrogen / ThermoFisher SelectScreen
Method in brief: as §1

Met = biological target: T7, Met (Homo sapiens, UniProt P08581)
T7 construct: purchased Invitrogen / ThermoFisher SelectScreen
T7 sequence (P08581 25-1390): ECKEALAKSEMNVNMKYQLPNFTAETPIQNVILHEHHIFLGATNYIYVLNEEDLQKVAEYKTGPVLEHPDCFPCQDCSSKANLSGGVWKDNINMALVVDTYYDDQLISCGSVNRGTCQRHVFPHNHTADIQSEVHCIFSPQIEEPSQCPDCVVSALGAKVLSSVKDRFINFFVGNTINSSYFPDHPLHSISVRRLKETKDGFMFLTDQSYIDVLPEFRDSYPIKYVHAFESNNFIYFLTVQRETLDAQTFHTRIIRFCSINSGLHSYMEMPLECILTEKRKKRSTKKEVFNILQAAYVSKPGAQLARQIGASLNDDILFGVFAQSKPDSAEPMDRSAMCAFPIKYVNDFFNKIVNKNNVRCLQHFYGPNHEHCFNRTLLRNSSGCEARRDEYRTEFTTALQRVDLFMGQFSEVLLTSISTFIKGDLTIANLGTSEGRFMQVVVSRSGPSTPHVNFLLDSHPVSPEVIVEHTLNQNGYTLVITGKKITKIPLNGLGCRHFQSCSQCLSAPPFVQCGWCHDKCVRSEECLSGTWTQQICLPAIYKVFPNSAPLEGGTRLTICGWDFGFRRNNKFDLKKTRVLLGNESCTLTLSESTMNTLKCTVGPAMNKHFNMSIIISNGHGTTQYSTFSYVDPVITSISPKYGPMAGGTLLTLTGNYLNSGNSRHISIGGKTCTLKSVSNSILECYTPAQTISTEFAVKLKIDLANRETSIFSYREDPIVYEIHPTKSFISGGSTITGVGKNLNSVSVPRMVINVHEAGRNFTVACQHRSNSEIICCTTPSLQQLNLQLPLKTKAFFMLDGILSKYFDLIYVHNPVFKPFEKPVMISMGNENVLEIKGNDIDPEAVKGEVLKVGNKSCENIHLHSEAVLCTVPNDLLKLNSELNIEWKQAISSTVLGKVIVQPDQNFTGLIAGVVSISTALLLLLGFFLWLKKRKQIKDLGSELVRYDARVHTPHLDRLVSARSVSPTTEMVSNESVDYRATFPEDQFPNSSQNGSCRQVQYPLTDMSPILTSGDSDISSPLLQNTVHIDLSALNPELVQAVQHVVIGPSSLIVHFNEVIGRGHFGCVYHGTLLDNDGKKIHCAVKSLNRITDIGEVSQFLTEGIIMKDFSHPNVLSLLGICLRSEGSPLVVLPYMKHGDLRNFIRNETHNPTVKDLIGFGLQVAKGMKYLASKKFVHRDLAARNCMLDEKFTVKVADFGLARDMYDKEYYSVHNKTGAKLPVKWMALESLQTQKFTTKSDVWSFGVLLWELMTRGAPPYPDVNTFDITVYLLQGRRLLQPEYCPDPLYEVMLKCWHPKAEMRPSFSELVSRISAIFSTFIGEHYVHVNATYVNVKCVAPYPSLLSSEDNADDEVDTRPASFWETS
Method in brief: as §1

TSSK1 = biological target: T8, TSSK1 (Homo sapiens, UniProt Q9BXA7)
T8 construct: purchased Invitrogen / ThermoFisher SelectScreen
Method in brief: as §1

IKK_epsilon = biological target: T9, IKK_epsilon (Homo sapiens, UniProt Q14164)
T9 construct: purchased Invitrogen / ThermoFisher SelectScreen
Method in brief: as §1

GRK5 = biological target: T10, GRK5 (Homo sapiens, UniProt P34947)
T10 construct: purchased Invitrogen / ThermoFisher SelectScreen
Method in brief: as §1

PDK1 = biological target: T11, PDK1 (Homo sapiens, UniProt O15530)
T11 construct: purchased Invitrogen / ThermoFisher SelectScreen
Method in brief: as §1

IRAK4 = biological target: T12, IRAK4 (Homo sapiens, UniProt Q9NWZ3)
T12 construct: purchased Invitrogen / ThermoFisher SelectScreen
Method in brief: as §1

Fes = biological target: T13, Fes (Homo sapiens, UniProt P07332)
T13 construct: purchased Invitrogen / ThermoFisher SelectScreen
Method in brief: as §1

Cot = biological target: T14, Cot (Homo sapiens, UniProt P41279)
T14 construct: purchased Invitrogen / ThermoFisher SelectScreen
Method in brief: as §1

PKC_zeta = biological target: T15, PKC_zeta (Homo sapiens, UniProt Q05513)
T15 construct: purchased Invitrogen / ThermoFisher SelectScreen
Method in brief: as §1

HIPK1 = biological target: T16, HIPK1 (Homo sapiens, UniProt Q86Z02)
T16 construct: purchased Invitrogen / ThermoFisher SelectScreen
T16 sequence (Q86Z02 whole entry): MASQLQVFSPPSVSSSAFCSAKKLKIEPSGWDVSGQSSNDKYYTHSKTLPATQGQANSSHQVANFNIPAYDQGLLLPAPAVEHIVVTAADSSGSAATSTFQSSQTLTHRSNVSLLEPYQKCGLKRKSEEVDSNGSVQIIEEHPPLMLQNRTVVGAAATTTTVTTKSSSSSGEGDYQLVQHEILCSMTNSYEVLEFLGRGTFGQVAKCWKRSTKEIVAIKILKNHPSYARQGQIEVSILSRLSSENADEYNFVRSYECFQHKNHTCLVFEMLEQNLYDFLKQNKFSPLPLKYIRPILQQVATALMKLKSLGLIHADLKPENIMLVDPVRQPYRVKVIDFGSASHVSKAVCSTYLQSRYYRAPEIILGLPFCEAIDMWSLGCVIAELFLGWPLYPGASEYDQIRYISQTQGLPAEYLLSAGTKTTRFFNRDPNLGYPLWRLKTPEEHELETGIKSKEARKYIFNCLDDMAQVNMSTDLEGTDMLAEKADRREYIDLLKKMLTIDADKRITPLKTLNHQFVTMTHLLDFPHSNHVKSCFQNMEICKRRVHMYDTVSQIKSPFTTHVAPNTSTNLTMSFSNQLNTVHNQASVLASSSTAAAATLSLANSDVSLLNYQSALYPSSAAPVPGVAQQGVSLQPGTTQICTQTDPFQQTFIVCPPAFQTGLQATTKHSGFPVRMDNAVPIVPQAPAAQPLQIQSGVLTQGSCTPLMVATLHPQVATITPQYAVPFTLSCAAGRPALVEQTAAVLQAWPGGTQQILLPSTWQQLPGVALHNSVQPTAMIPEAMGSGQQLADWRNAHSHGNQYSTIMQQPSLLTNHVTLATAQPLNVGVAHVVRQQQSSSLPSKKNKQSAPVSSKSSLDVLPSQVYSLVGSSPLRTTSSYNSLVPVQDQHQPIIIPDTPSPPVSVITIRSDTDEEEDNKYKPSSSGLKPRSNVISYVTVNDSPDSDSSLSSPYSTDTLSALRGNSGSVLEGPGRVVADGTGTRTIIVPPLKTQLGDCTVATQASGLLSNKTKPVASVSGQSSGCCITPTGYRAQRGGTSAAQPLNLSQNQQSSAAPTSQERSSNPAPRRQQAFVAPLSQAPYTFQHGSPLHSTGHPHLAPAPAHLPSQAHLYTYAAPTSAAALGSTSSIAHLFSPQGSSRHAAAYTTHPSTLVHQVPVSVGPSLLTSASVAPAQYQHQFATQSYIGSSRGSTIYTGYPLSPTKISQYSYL
Method in brief: as §1

SIK2 = biological target: T17, SIK2 (Homo sapiens, UniProt Q9H0K1)
T17 construct: purchased Invitrogen / ThermoFisher SelectScreen
Method in brief: as §1

InsR = biological target: T18, InsR (Homo sapiens, UniProt P06213)
T18 construct: purchased Invitrogen / ThermoFisher SelectScreen
Method in brief: as §1

RSK2 = biological target: T19, RSK2 (Homo sapiens, UniProt P51812)
T19 construct: purchased Invitrogen / ThermoFisher SelectScreen
Method in brief: as §1

PAK1 = biological target: T20, PAK1 (Homo sapiens, UniProt Q13153)
T20 construct: purchased Invitrogen / ThermoFisher SelectScreen
Method in brief: as §1

CHK2 = biological target: T21, CHK2 (Homo sapiens, UniProt O96017)
T21 construct: purchased Invitrogen / ThermoFisher SelectScreen
Method in brief: as §1

ACVR1B = biological target: T22, ACVR1B (Homo sapiens, UniProt P36896)
T22 construct: purchased Invitrogen / ThermoFisher SelectScreen
Method in brief: as §1

CK2_alpha1 = biological target: T23, CK2_alpha1 (Homo sapiens, UniProt P68400)
T23 construct: purchased Invitrogen / ThermoFisher SelectScreen
Method in brief: as §1

Ros = biological target: T24, Ros (Homo sapiens, UniProt P08922)
T24 construct: purchased Invitrogen / ThermoFisher SelectScreen
Method in brief: as §1

AKT1 = biological target: T25, AKT1 (Homo sapiens, UniProt P31749)
T25 construct: purchased Invitrogen / ThermoFisher SelectScreen
Method in brief: as §1

KHS1 = biological target: T26, KHS1 (Homo sapiens, UniProt Q9Y4K4); conditions: NIK SMI1 1 µM; ATP Km app
T26 construct: purchased Invitrogen / ThermoFisher SelectScreen
T26 sequence (Q9Y4K4 whole entry): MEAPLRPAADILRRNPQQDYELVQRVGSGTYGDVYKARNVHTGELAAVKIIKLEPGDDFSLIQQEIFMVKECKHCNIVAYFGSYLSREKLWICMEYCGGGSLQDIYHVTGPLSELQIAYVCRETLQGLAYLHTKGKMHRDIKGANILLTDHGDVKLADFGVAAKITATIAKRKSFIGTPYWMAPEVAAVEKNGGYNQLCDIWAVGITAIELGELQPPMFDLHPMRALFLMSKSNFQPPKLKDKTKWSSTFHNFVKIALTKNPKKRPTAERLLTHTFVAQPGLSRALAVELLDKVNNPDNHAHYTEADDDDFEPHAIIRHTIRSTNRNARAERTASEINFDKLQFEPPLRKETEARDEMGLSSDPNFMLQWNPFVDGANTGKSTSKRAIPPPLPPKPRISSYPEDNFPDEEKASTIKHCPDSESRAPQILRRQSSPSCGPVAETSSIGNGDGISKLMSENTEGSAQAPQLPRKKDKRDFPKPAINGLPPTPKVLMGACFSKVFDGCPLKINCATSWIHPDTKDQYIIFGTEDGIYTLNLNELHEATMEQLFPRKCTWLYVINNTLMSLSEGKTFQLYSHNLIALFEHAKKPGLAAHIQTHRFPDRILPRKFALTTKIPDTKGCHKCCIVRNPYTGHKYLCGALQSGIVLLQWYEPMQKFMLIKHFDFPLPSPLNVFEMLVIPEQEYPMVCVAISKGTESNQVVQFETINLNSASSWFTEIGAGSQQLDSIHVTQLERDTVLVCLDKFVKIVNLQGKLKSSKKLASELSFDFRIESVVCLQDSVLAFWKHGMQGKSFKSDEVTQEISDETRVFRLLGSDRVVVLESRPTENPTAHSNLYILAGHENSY
Method in brief: as §1

Flt1 = biological target: T27, Flt1 (Homo sapiens, UniProt P17948)
T27 construct: purchased Invitrogen / ThermoFisher SelectScreen
Method in brief: as §1

PAK3 = biological target: T28, PAK3 (Homo sapiens, UniProt O75914)
T28 construct: purchased Invitrogen / ThermoFisher SelectScreen
Method in brief: as §1

JAK2 = biological target: T29, JAK2 (Homo sapiens, UniProt O60674)
T29 construct: purchased Invitrogen / ThermoFisher SelectScreen
Method in brief: as §1

MKNK1 = biological target: T30, MKNK1 (Homo sapiens, UniProt Q9BUB5)
T30 construct: purchased Invitrogen / ThermoFisher SelectScreen
Method in brief: as §1

GRK3 = biological target: T31, GRK3 (Homo sapiens, UniProt P35626)
T31 construct: purchased Invitrogen / ThermoFisher SelectScreen
Method in brief: as §1

PLK1 = biological target: T32, PLK1 (Homo sapiens, UniProt P53350)
T32 construct: purchased Invitrogen / ThermoFisher SelectScreen
Method in brief: as §1

TYK2 = biological target: T33, TYK2 (Homo sapiens, UniProt P29597)
T33 construct: purchased Invitrogen / ThermoFisher SelectScreen
T33 sequence (P29597 whole entry): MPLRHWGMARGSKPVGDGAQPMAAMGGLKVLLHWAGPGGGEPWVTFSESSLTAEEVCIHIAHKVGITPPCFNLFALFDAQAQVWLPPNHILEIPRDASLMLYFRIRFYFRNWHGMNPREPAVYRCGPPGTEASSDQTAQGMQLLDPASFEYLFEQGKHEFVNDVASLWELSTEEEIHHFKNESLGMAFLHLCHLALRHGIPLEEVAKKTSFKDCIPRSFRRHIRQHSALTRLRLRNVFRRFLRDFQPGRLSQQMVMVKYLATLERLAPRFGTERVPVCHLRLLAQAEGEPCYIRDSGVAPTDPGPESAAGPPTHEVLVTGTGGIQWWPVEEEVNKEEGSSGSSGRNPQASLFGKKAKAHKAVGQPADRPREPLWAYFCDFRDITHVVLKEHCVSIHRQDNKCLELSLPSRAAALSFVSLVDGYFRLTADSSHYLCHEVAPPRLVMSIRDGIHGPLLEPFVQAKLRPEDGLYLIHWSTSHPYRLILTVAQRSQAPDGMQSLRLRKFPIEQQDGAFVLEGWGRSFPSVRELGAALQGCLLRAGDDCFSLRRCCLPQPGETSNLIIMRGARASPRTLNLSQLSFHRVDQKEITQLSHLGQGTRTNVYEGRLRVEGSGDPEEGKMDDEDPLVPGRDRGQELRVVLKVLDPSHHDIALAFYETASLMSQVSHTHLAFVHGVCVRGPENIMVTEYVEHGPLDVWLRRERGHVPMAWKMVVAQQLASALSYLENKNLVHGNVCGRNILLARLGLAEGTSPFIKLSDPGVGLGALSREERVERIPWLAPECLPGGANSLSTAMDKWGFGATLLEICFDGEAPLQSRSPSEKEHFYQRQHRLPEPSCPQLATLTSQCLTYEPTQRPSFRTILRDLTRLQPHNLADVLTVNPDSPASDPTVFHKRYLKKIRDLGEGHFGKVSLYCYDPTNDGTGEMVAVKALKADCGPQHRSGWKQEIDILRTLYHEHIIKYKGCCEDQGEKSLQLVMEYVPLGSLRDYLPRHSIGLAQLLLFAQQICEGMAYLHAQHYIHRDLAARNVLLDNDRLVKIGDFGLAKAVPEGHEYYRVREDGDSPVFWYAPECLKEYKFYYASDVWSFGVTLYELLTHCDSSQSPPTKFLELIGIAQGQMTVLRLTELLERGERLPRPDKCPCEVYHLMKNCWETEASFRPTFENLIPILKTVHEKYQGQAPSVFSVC
Method in brief: as §1

**Q.** How did the inhibition at 1 µM (MLK1) turn out when COc1cc(C(N)=O)nc(-c2cccc(C#C[C@]3(O)CCN(C)C3=O)c2)c1 [NIK SMI1] was run?
**A.** -1%

**Q.** And the inhibition at 1 µM (Yes)?
**A.** 0.5%

**Q.** And the inhibition at 1 µM (PKD_delta)?
**A.** 1.5%

**Q.** And the inhibition at 1 µM (DAPK1)?
**A.** 15.1%

**Q.** What about the inhibition at 1 µM (CK1_gamma2) of the same molecule?
**A.** 8.5%

**Q.** What about the inhibition at 1 µM (HIPK2) of the same molecule?
**A.** 17.5%

**Q.** And the inhibition at 1 µM (Met)?
**A.** 0%

**Q.** And the inhibition at 1 µM (TSSK1)?
**A.** 61%

**Q.** What about the inhibition at 1 µM (IKK_epsilon) of the same molecule?
**A.** 19%

**Q.** What about the inhibition at 1 µM (GRK5) of the same molecule?
**A.** 0.5%

**Q.** And the inhibition at 1 µM (PDK1)?
**A.** -0.5%

**Q.** What about the inhibition at 1 µM (IRAK4) of the same molecule?
**A.** -1.5%

**Q.** What about the inhibition at 1 µM (Fes) of the same molecule?
**A.** 20.5%

**Q.** What about the inhibition at 1 µM (Cot) of the same molecule?
**A.** 34.5%

**Q.** And the inhibition at 1 µM (PKC_zeta)?
**A.** 7%

**Q.** And the inhibition at 1 µM (HIPK1)?
**A.** 4.5%

**Q.** What about the inhibition at 1 µM (SIK2) of the same molecule?
**A.** 5.5%

**Q.** What about the inhibition at 1 µM (InsR) of the same molecule?
**A.** 2%

**Q.** What about the inhibition at 1 µM (RSK2) of the same molecule?
**A.** 7%

**Q.** What about the inhibition at 1 µM (PAK1) of the same molecule?
**A.** 9%

**Q.** What about the inhibition at 1 µM (CHK2) of the same molecule?
**A.** 4.5%

**Q.** What about the inhibition at 1 µM (ACVR1B) of the same molecule?
**A.** 2%

**Q.** And the inhibition at 1 µM (CK2_alpha1)?
**A.** 4.5%

**Q.** And the inhibition at 1 µM (Ros)?
**A.** 12.5%

**Q.** What about the inhibition at 1 µM (AKT1) of the same molecule?
**A.** 28.5%

**Q.** What about the “% Inhibition” value (KHS1) of the same molecule?
**A.** > 75% and 96%

**Q.** What about the inhibition at 1 µM (Flt1) of the same molecule?
**A.** 7%

**Q.** And the inhibition at 1 µM (PAK3)?
**A.** -3.5%

**Q.** And the inhibition at 1 µM (JAK2)?
**A.** 8.5%

**Q.** What about the inhibition at 1 µM (MKNK1) of the same molecule?
**A.** 2%

**Q.** What about the inhibition at 1 µM (GRK3) of the same molecule?
**A.** 1.5%

**Q.** And the inhibition at 1 µM (PLK1)?
**A.** 1.5%

**Q.** And the inhibition at 1 µM (TYK2)?
**A.** 2%
